In assay [1] the test system is interleukin 2 receptor (IL-2R, Tac) expression in PHA-stimulated mouse spleen cells. The experiment in a line: suppression of induction of IL-2R (Tac) expression in PHA-stimulated mouse spleen cells. It is filed as cell-based. The procedure:
Mouse allogenic MLC and PHA-stimulated mouse spleen cells were prepared in the same as in Experimental Example 3.
The IL-2R (Tac) induced in mouse allogenic MLC and PHA-stimulated mouse spleen cells was assayed as follows:
After culturing the mouse allogenic MLC and the PHA-stimulated mouse spleen cells at 37° C. in an atmosphere of 5% carbon dioxide for 24 hours, the cells were collected by centrifugation (1000 rpm, 5 minutes, 4° C.), and about 10^6 cells were cultured in 10 μl of phosphate buffered saline (PBS), to which 0.02% sodium azide-containing rat anti-mouse IL-2R monoclonal antibody (manufactured by Boehringer Co., 40 μg/ml) had been added, for 30 minutes with ice-cooling. After washing three times with ice-cooled PBS containing 0.02% sodium azide, 50 μl of fluorescein isothiocyanate (FITC)-labeled goat anti-rat immunoglobulin G antibody was added and cultured for 30 minutes with ice-cooling. To the cell pellet after washing three times with ice-cooled 0.02% sodium azide-added PBS was added, a few drops of PBS containing 0.2% sodium azide and 50% glycerin. Prepared specimens on non-fluorescent slide glasses were made and the IL-2R positive cells were counted under a fluorescent microscope to determine the ratio of numbers of IL-2R positive cells in the total numbers of the cells.

The test system of assay [2] is interleukin 6 (IL6) response of mouse spleen cells. Description: suppression of interleukin 6 (IL6) response of mouse spleen cells (plaque assay). In kind it is cell-based. The protocol: The spleen was resected from 8-week-old male BALB/c mice, and single cell suspension in the serum-free RPMI1640 culture medium was prepared, and thereafter cell pellets were obtained by centrifugation (1000 rpm, 5 minutes) of the suspension. Then a mixture of 9 parts of a 0.16 M ammonium chloride solution and 1 part of a 0.17 M Tris solution (pH 7.65) was added to lyse red blood cells, and the suspension was washed three times with the serum-free RPMI1640 culture medium. The obtained cells were suspended to the concentration of 5×10^6 cells/ml in the RPMI1640 culture medium supplemented with 20% FCS, 5×10^-5 M 2-mercaptoethanol, 2×10^-3 M L glutamine, 1×10^-3 sodium pyruvate and 25% of the supernatant of the culture of T24 human bladder carcinoma cell line as a source of interluekin 6. One hundred μl of this cell suspension and 100 μl of the test substance were mixed in each well of 96-well microculture plates, and cultured at 37° C. in an atmosphere of 5% carbon dioxide for 72 hours. After termination of the culture, 50 μl of the cell suspension was collected from each well. Three hundred μl of the RPMI1640 culture medium supplemented with 0.7% agarose gel, 20 μl of physiological saline containing 40% protein A-bound sheep red blood cells and 20 μl of 300-fold dilution of anti-mouse IgG anti-serum diluted in physiological saline were mixed in a test tube, and extended uniformly on Rohduck plates (Falcon Co. 1034). After gel formation by keeping still at room temperature for a few minutes, the plates were cultured at 37° C. in an atmosphere of 5% carbon dioxide for about 4 hours.
Three hundred μl of a 40-fold dilution of guinea pig complement in the serum-free RPMI1640 culture medium was added to each plate, which was then incubated for further 2 hours. The number of plaques formed was counted under stereoscopic microscope.
SD in the Table means standard deviation. The percent suppression (%) was calculated by the following formula. [formula]

This note sets out measurements from patent US5219884A, “Immunosuppressant” (Taito Co., Ltd., priority 1990, dated 1993).

Turning to `CCCCCCC(=O)CCCCCC/C=C/CC(O)C(O)C(N)(CO)C(=O)O` (centres unmarked) [Example 1], the figures for the IL-2R positive cells in assay [1] (0.1 μg/ml), in assay [1] (1 μg/ml) and in assay [1] (10 μg/ml) were 36.6%, 26.6% and 13.4%, respectively. Moreover, the inhibition at 0.1 µg/mL in assay [1] (Mus musculus, 24 h, 0.1 μg/ml) is 20.8%. In assay [1] (Mus musculus, 24 h, 1 μg/ml), the inhibition at 1 µg/mL came to 42.4%. Besides, the inhibition at 10 µg/mL in assay [1] (Mus musculus, 24 h, 10 μg/ml) is 71%. The Number of plaque in assay [2] (0.002 μg/ml) is reported as 130 ± 4 plaque/1 × 10^6 cells ± SD; in assay [2] (0.02 μg/ml), 108 ± 10 plaque/1 × 10^6 cells ± SD; in assay [2] (0.2 μg/ml) it was 78 ± 6 plaque/1 × 10^6 cells ± SD; in assay [2] (2 μg/ml), 60 ± 8 plaque/1 × 10^6 cells ± SD. Besides, in assay [2] (Mus musculus, 72 h, 0.002 μg/ml), the inhibition at 0.002 µg/mL is 39.2%. For the same compound, the inhibition at 0.02 µg/mL in assay [2] (Mus musculus, 72 h, 0.02 μg/ml) came to 50.5%. For the same compound, the inhibition at 0.2 µg/mL in assay [2] (Mus musculus, 72 h, 0.2 μg/ml) is 66%. For the same compound, in assay [2] (Mus musculus, 72 h, 2 μg/ml), the inhibition at 2 µg/mL was found to be 75.3%.

Usually inhibition stands for the change of the read-out against control, counted positive when it falls.
